Reference: paper PMC8934836 (EJNMMI Radiopharmacy and Chemistry, 2022)
Where two headings read alike, the source gives them in different places.

Legend:
[1] = Preliminary studies on storage stability of the precursor; assay type: physicochemical; conditions: room temperature
α1β3γ2 human GABAARs = molecular target: T1, α1β3γ2 human GABAARs (Homo sapiens, UniProt P14867+P18507); experiment: [^3H]flumazenil in vitro binding assay, α1β3γ2
T1 construct: expressed in transfected cells; host or cells: mouse fibroblasts, stably expressing; membranes prepared
T1 sequence (P14867 28-456): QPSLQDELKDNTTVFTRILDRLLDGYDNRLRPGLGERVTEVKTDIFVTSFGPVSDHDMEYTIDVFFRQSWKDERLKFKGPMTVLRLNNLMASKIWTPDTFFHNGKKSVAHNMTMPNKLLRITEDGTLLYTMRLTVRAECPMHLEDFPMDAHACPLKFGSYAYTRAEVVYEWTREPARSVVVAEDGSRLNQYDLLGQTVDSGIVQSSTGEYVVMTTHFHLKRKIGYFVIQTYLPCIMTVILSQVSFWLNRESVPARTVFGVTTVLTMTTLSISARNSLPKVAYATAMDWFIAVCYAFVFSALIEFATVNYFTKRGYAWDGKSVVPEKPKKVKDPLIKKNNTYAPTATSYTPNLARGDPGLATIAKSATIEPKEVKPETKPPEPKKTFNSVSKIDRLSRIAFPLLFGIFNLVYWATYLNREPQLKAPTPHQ
T1 sequence (P28472 26-473 partner): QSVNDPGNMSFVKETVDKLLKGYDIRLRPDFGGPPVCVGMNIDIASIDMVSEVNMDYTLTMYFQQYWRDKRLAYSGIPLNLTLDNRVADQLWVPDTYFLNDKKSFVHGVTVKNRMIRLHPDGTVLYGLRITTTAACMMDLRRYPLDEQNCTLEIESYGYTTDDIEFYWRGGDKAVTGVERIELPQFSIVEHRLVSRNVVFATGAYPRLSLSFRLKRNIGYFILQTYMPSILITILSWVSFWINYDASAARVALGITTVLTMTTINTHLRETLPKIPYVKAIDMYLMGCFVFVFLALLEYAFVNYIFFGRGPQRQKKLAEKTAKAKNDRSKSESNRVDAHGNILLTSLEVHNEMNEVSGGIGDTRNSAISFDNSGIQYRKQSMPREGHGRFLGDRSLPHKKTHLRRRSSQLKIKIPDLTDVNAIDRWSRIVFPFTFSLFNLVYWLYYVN
T1 sequence (P18507 40-475): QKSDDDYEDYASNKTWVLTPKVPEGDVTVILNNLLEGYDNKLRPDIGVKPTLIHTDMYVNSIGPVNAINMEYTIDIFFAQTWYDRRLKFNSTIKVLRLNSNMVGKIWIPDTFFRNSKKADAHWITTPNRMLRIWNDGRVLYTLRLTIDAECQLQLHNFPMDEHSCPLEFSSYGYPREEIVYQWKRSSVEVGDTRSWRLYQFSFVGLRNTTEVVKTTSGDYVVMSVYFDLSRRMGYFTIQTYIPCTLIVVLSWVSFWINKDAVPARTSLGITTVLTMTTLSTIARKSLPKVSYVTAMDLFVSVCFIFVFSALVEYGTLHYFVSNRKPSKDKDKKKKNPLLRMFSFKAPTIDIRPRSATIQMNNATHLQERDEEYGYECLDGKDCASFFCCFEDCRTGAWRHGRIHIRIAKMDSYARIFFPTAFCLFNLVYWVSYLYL
Experimental: (§1) These samples were serially diluted in 100% DMSO in half-log units such that when 5 µl were added into a total assay volume of 500 µl, the final DMSO concentration in the assay was 1%.
(§2) In brief, mouse fibroblasts stably expressing the four subtypes of human GABAARs that contain a benzodiazepine binding site (i.e., α1-, α2-, α3- and α5β3γ2) were grown, harvested, and membranes were prepared and frozen at -80 °C until required. On the day of the assay, membranes were thawed and reconstituted in assay buffer (75 mM Tris.Cl, pH 7.4, 1 mM EDTA, 12.5 mM MgCl2) at a concentration of 101 µg/ml for α1β3γ2 and 51 µg/ml for α2-, α3- and α5β3γ2 membrane. […] Incubations were performed for 1 h at room temperature before being terminated by filtration and rapid washing (2 × 10 ml of ice-cold 50 mM Tris.Cl, pH 7.4 buffer) over Whatman GF/B filters using a Brandel cell harvester. Filters were then placed in scintillation vials, 4 ml of scintillation fluid added, and radioactivity was counted on a Tricarb 2900 scintillation counter.

α2β3γ2 human GABAARs = molecular target: T2, α2β3γ2 human GABAARs (Homo sapiens, UniProt P18507+P47869); experiment: [^3H]flumazenil in vitro binding assay, α2β3γ2; conditions: read-out: Affinity at human GABAAR subtypes, α2β3γ2 (mean Ki)
T2 construct: expressed in transfected cells; host or cells: mouse fibroblasts, stably expressing; membranes prepared
T2 sequence (P47869 29-451): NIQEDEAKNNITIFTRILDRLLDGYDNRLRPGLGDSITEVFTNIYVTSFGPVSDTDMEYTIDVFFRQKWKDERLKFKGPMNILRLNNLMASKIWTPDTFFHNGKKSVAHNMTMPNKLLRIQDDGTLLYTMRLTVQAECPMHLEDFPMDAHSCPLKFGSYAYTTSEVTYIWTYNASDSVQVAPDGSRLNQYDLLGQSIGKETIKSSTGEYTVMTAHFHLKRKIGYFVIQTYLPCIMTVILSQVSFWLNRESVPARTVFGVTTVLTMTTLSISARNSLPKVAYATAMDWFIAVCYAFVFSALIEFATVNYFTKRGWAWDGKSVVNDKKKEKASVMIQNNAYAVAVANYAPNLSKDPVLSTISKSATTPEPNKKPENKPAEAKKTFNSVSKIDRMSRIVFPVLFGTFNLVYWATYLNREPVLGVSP
T2 sequence (P28472 26-473 partner): as the sequence (P28472 26-473 partner) above
T2 sequence (P18507 40-475): as the sequence (P18507 40-475) above
Experimental: as §1, §2

α3β3γ2 human GABAARs = molecular target: T3, α3β3γ2 human GABAARs (Homo sapiens, UniProt P18507+P34903); experiment: [^3H]flumazenil in vitro binding assay, α3β3γ2; conditions: read-out: Affinity at human GABAAR subtypes, α3β3γ2 (mean Ki)
T3 construct: expressed in transfected cells; host or cells: mouse fibroblasts, stably expressing; membranes prepared
T3 sequence (P34903 29-492): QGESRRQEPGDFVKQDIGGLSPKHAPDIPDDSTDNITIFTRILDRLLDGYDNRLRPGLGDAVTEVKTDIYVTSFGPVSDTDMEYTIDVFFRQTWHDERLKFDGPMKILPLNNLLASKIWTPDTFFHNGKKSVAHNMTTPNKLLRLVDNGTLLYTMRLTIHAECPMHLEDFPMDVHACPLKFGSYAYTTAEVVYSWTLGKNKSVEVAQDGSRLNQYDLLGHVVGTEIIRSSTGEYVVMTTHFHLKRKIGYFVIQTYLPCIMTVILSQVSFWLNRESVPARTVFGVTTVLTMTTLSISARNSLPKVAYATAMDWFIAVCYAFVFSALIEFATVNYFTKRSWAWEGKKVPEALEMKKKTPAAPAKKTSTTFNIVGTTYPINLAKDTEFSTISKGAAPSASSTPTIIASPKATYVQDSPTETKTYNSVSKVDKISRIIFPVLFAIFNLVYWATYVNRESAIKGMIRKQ
T3 sequence (P28472 26-473 partner): as the sequence (P28472 26-473 partner) above
T3 sequence (P18507 40-475): as the sequence (P18507 40-475) above
Experimental: as §1, §2

α5β3γ2 human GABAARs = molecular target: T4, α5β3γ2 human GABAARs (Homo sapiens, UniProt P18507+P31644); experiment: [^3H]flumazenil in vitro binding assay, α5β3γ2
T4 construct: expressed in transfected cells; host or cells: mouse fibroblasts, stably expressing; membranes prepared
T4 sequence (P31644 32-462): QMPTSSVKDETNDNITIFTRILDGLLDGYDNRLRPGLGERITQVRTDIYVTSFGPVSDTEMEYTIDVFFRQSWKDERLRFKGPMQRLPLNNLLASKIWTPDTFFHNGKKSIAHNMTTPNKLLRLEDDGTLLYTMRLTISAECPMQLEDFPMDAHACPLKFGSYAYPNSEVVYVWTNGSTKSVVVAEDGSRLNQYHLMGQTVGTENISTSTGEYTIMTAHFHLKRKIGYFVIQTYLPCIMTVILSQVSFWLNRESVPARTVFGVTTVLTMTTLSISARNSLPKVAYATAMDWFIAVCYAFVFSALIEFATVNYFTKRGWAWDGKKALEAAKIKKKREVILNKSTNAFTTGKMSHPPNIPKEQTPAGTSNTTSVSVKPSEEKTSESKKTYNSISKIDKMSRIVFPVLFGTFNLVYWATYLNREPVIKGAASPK
T4 sequence (P28472 26-473 partner): as the sequence (P28472 26-473 partner) above
T4 sequence (P18507 40-475): as the sequence (P18507 40-475) above
Experimental: as §1, §2

[2] = mouse fibroblast membranes, 4 nM [^3H]flumazenil, Cheng-Prusoff, mean ± SEM of n = 4 separate assays

In the case of CCOC(=O)c1ncn2c1CN(C)C(=O)c1cc(B3OC(C)(C)C(C)(C)O3)ccc1-2 [FMZ-BPin, Ethyl 5-methyl-6-oxo-8(4,4,5,5-tetramethyl-1,3,2-dioxaborolan-2-yl)-5,6-dihydro-4H-benzo[f]imidazo[1,5-a][1,4]diazepine-3-carboxylate], the “Stable for prolonged storage” value [1] is reported as over 9 months.
CCOC(=O)c1ncn2c1CN(C)C(=O)c1ccccc1-2 [HMZ, ethyl 5-methyl-6-oxo-5,6-dihydro-4H-benzo[f]imidazo[1,5-a][1,4]diazepine-3-carboxylate] gave a Ki (α1β3γ2 human GABAARs) of 24 ± 3 nM, a Ki (α2β3γ2 human GABAARs) of 15 ± 2 nM and a Ki (α3β3γ2 human GABAARs) of 11 ± 4 nM. For the same compound, the Ki (α5β3γ2 human GABAARs) was 1.7 ± 0.2 nM.
In the case of CCOC(=O)c1ncn2c1CN(C)C(=O)c1cc(O)ccc1-2 [OHMZ, Flumazenil impurity B], the Ki (α1β3γ2 human GABAARs; mouse fibroblast membranes, 4 nM [^3H]flumazenil, Cheng-Prusoff, mean ± SEM of n = 4 separate assays, read-out: Affinity at human GABAAR subtypes, α1β3γ2 (mean Ki)) is reported as 5.4 ± 0.6 nM, the Ki (α2β3γ2 human GABAARs; [2]) is reported as 7.3 ± 1.5 nM and the Ki (α3β3γ2 human GABAARs; [2]) is reported as 2.7 ± 0.9 nM. The Ki (α5β3γ2 human GABAARs; mouse fibroblast membranes, 4 nM [^3H]flumazenil, Cheng-Prusoff, mean ± SEM of n = 4 separate assays, read-out: Affinity at human GABAAR subtypes, α5β3γ2 (mean Ki)) was 0.5 ± 0.1 nM.
